Laboratory results: patent US20080039455A1, “PYRAZOLOPYRIMIDINES AND SALTS THEREOF, PHARMACEUTICAL COMPOSITIONS COMPRISING SAME, METHODS OF PREPARING SAME AND USES OF SAME” (priority 2006, published 2008)
pIC50: −log10 of the molar value.

The compounds below were run against T1, human recombinant ALK1 (GST fused to ALK1 intracellular domain [His142-Gln503]) (Homo sapiens, UniProt P37023) (assay: ALK1-Kinase Flashplate-Assay). Conditions: 0.5 μM ATP, biotinylated α-casein substrate; read-out: Assay 1 (ALK1-Kinase Flashplate-Assay IC50 class).
T1 construct: GST fused to ALK1 intracellular domain [His142-Gln503]; made in house
T1 sequence (P37023 142-503): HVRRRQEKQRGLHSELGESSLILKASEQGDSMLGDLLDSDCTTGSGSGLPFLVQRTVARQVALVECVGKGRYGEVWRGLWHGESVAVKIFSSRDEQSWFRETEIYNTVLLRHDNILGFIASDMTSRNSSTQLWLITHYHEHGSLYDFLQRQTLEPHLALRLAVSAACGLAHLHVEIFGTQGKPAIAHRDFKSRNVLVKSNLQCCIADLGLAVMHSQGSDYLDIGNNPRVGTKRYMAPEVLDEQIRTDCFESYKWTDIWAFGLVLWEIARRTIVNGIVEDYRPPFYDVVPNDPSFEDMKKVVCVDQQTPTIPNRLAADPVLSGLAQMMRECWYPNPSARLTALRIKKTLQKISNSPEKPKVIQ
Type: biochemical
Description: Biological Assay 1: ALK1-Kinase Flashplate-Assay
ALK1 phosphorylates serine/threonine residues of the biotinylated substrate bovine α-casein in the presence of [γ-^33P]ATP. Detection of the radiolabeled phosphorylated product is achieved by binding to streptavidine-coated Flashplates. The biotin moieties of biotinylated casein bind with high affinity to the streptavidine. The radiolabeled biotinylated casein produced by the ALK1 kinase reaction is able to generate a […] signal when strepatavidine-mediated binding occurs to the scintillant-containing surface of the Flashplates due to the close proximity of the radiolabel and the scintillant. […] The signals obtained are therefore indicative of the ALK1 kinase activity. Measurement is performed in a Perkin-Elmer TopCount or Perkin-Elmer ViewLux instrument.
Enzyme: Purified human recombinant ALK1 (GST fused to ALK1 intracellular domain [His142-Gln503]) produced in-house, aliquots stored at −80° C.;
Diluted enzyme working solution: 2.5 ng/μl ALK1 (in assay buffer) freshly prepared and chilled on ice until use.
Substrate: biotinylated bovine α-casein. Unbiotinylated casein obtained from Sigma was biotinylated by standard procedures using N-hydroxysuccinimide (NHS) ester of biotin.
Substrate working solution: 0.83 μM ATP, 1.67 μM biotinylated a-casein, 7.4 nCi [γ-^33P]ATP/μl in assay buffer
Assay plates: 384-well plates, small volume, white, Greiner (# 784075)
Flashplates: Streptavidin-coated Flashplates, Perkin Elmer (384-well # SPM410A)
Assay buffer: 50 mM Tris/HCl pH 8.0, 1 mM MnCl2, 1 mM DTT, 0.01% NP40, 0.5× Complete EDTA-free
Stop solution: 33.3 μM ATP, 33.3 mM EDTA, 0.07% Triton X-100 in PBS
Saturating buffer for Flashplates: 100 μM ATP, 0.2% Triton X-100 in PBS
Sealing tape: Greiner (# 676080)
Protocol for small volume 5 μl assay (all steps are performed at 20° C., pipetted with CyBi-Well and Multidrop Micro): • 1. 50 nl or 250 nl compound in 100% DMSO • 2. addition of 3 μl substrate working solution with CyBi-Well pipettor • 3. addition of 2 μl enzyme working solution with Multidrop Micro incubation for 60 min at room temperature • 4. addition of 15 μl Stop solution with CyBi-Well pipettor • 5. transfer of 18 μl assay mixture to Flashplates** with CyBi-Well pipettor incubation for at least 3 h at room temperature or over night at 4° C. to allow binding to the streptavidine-coated Flashplates • 6. washing the Flashplates 3 times with 50 μl PBS without Ca++ and Mg++ • 7. sealing with sealing tape • 8. Measurement in Topcount (60 sec/well) **Saturation of Flashplates: The Flashplates are preincubated for at least 1 hour with 50 μl saturating buffer. Remove 18 μl from the 50 μl and transfer 18 μl of the assay mixture to the Flashplate.
Final concentrations, calculated for 5 μl reaction volume: ALK1 5 ng/well; 1 μM biotinylated α-casein; 0.5 μM ATP; 22 nCi/well [γ-^33P]ATP; 1 mM MnCl2; 1 mM DTT; 50 mM Tris-HCl; pH 8.0; 0.01% NP40; 0.5× Complete EDTA-free; 1% or 5% DMSO.
The data were normalised (enzyme reaction without inhibitor=0% inhibition, enzyme reaction in the presence of 10 mM EDTA=100% inhibition) and IC50 values were calculated by a 4 parameter fit using an in-house software.
Work on COc1cc(-c2cnn3ccc(NCc4cccnc4)nc23)cc(OC)c1OC [Example 126, Pyridin-3-ylmethyl-[3-(3,4,5-trimethoxy-phenyl)-pyrazolo[1,5-a]pyrimidin-5-yl]-amine] yielded a pIC50 of 5.00 to 6.00. Work on O=C(O)CCc1ccc(-c2cnn3ccc(Nc4ccc(O)cc4)nc23)cc1 [Example 83, 3-{4-[5-(4-Hydroxy-phenylamino)-pyrazolo[1,5-a]pyrimidin-3-yl]-phenyl}-propionic acid] yielded a pIC50 of 5.00 to 6.00. COc1cccc(-c2cnn3ccc(Nc4ccc(NS(=O)(=O)c5ccc(C)cc5)cc4)nc23)c1 [Example 200, N-{4-[3-(3-Methoxy-phenyl)-pyrazolo[1,5-a]pyrimidin-5-ylamino]-phenyl}-4-methyl-benzenesulfonamide] showed a pIC50 of 5.00 to 6.00. Oc1cccc(-c2cnn3ccc(Nc4cccc(Cl)c4)nc23)c1 [Example 311, 3-[5-(3-Chloro-phenylamino)-pyrazolo[1,5-a]pyrimidin-3-yl]-phenol] showed a pIC50 of 5.00 to 6.00. N#Cc1ccc(-c2cnn3ccc(Nc4ccc(O)cc4)nc23)cc1 [Example 86, 4-[5-(4-Hydroxy-phenylamino)-pyrazolo[1,5-a]pyrimidin-3-yl]-benzonitrile] was tested, and the pIC50 was 5.00 to 6.00. COc1ccc(Nc2ccn3ncc(-c4cccc(N(C)C)c4)c3n2)cn1 [Example 332, [3-(3-Dimethylamino-phenyl)-pyrazolo[1,5-a]pyrimidin-5-yl]-(6-methoxy-pyridin-3-yl)-amine] gave a pIC50 of 5.00 to 6.00. Compound COc1ccc(Nc2ccn3ncc(-c4cnn(C)c4)c3n2)cn1 [Example 198, (6-Methoxy-pyridin-3-yl)-[3-(1-methyl-1H-pyrazol-4-yl)-pyrazolo[1,5-a]pyrimidin-5-yl]-amine] has a pIC50 of over 6.00. COc1cc(-c2cnn3ccc(Nc4cc(OC)c(OC)c(OC)c4)nc23)ccc1O [Example 424, 2-Methoxy-4-[5-(3,4,5-trimethoxy-phenylamino)-pyrazolo[1,5-a]pyrimidin-3-yl]-phenol] showed a pIC50 of 5.00 to 6.00. Compound Cn1cc(-c2cnn3ccc(NC4CCC(O)CC4)nc23)cn1 (stereo not drawn) [Example 221, 4-[3-(1-Methyl-1H-pyrazol-4-yl)-pyrazolo[1,5-a]pyrimidin-5-ylamino]-cyclohexanol] has a pIC50 of 5.00 to 6.00. Work on Nc1ccc(C(=O)Nc2ccc(Nc3ccn4ncc(-c5cnn(Cc6ccccc6)c5)c4n3)cc2)cc1 [Example 204, 4-Amino-N-{4-[3-(1-benzyl-1H-pyrazol-4-yl)-pyrazolo[1,5-a]pyrimidin-5-ylamino]-phenyl}-benzamide] yielded a pIC50 of 5.00 to 6.00. COc1ccc(-c2cnn3ccc(NCCO)nc23)cc1OC [Example 73, 2-[3-(3,4-Dimethoxy-phenyl)-pyrazolo[1,5-a]pyrimidin-5-ylamino]-ethanol] was tested, and the pIC50 was over 6.00. Compound FC(F)(F)Oc1cccc(-c2cnn3ccc(NCc4ccncc4)nc23)c1 [Example 113, Pyridin-4-ylmethyl-[3-(3-trifluoromethoxy-phenyl)-pyrazolo[1,5-a]pyrimidin-5-yl]-amine] has a pIC50 of over 6.00. Compound Cc1csc(-c2cnn3ccc(NCc4cccnc4)nc23)c1 [Example 172, [3-(4-Methyl-thiophen-2-yl)-pyrazolo[1,5-a]pyrimidin-5-yl]-pyridin-3-ylmethyl-amine] has a pIC50 of 5.00 to 6.00. COc1ccc(-c2cnn3ccc(Nc4ccc5[nH]ccc5c4)nc23)cc1OC [Example 17, [3-(3,4-Dimethoxy-phenyl)-pyrazolo[1,5-a]pyrimidin-5-yl]-(1H-indol-5-yl)-amine] gave a pIC50 of over 6.00. For Cc1ccc(S(=O)(=O)Nc2ccc(Nc3ccn4ncc(-c5ccncc5)c4n3)cc2)cc1 [Example 51, 4-Methyl-N-[4-(3-pyridin-4-yl-pyrazolo[1,5-a]pyrimidin-5-ylamino)-phenyl]-benzenesulfonamide], the pIC50 was over 6.00. Work on CS(=O)(=O)Nc1cccc(-c2cnn3ccc(Nc4ccc(N5CCOCC5)cc4)nc23)c1 [Example 447, N-{3-[5-(4-Morpholin-4-yl-phenylamino)-pyrazolo[1,5-a]pyrimidin-3-yl]-phenyl}-methanesulfonamide] yielded a pIC50 of over 6.00. Compound CCN(CC)CCCNc1ccn2ncc(-c3ccc(C)c(Cl)c3)c2n1 [Example 492, N′-[3-(3-Chloro-4-methyl-phenyl)-pyrazolo[1,5-a]pyrimidin-5-yl]-N,N-diethyl-propane-1,3-diamine] has a pIC50 of 5.00 to 6.00. With c1ccc(Nc2ccn3ncc(-c4ccsc4)c3n2)cc1 [Example 280, Phenyl-(3-thiophen-3-yl-pyrazolo[1,5-a]pyrimidin-5-yl)-amine] the pIC50 was 5.00 to 6.00. COc1cc(-c2cnn3ccc(NCc4ccncc4)nc23)cc(OC)c1OC [Example 418, Pyridin-4-ylmethyl-[3-(3,4,5-trimethoxy-phenyl)-pyrazolo[1,5-a]pyrimidin-5-yl]-amine] showed a pIC50 of over 6.00. CC(=O)Nc1cccc(-c2cnn3ccc(Nc4ccccc4)nc23)c1 [Example 283, N-[3-(5-Phenylamino-pyrazolo[1,5-a]pyrimidin-3-yl)-phenyl]-acetamide] showed a pIC50 of 5.00 to 6.00. For COc1cncc(-c2cnn3ccc(NC4CCC(O)CC4)nc23)c1 (stereo not drawn) [Example 116, 4-[3-(5-Methoxy-pyridin-3-yl)-pyrazolo[1,5-a]pyrimidin-5-ylamino]-cyclohexanol], the pIC50 was 5.00 to 6.00. COc1cncc(-c2cnn3ccc(NCCO)nc23)c1 [Example 123, 2-[3-(5-Methoxy-pyridin-3-yl)-pyrazolo[1,5-a]pyrimidin-5-ylamino]-ethanol] gave a pIC50 of over 6.00. With c1cc(CNc2ccn3ncc(-c4ccc5c(c4)OCO5)c3n2)ccn1 [Example 61, (3-Benzo[1,3]dioxol-5-yl-pyrazolo[1,5-a]pyrimidin-5-yl)-pyridin-4-ylmethyl-amine] the pIC50 was over 6.00. Work on COc1cc(-c2cnn3ccc(Nc4cccc(Cl)c4)nc23)cc(OC)c1OC [Example 306, (3-Chloro-phenyl)-[3-(3,4,5-trimethoxy-phenyl)-pyrazolo[1,5-a]pyrimidin-5-yl]-amine] yielded a pIC50 of over 6.00. For O=C(O)/C=C/c1cccc(-c2cnn3ccc(NC4CCC(O)CC4)nc23)c1 (stereo not drawn) [Example 157, (E)-3-{3-[5-(4-Hydroxy-cyclohexylamino)-pyrazolo[1,5-a]pyrimidin-3-yl]-phenyl}-acrylic acid], the pIC50 was 5.00 to 6.00. Clc1cccc(-c2cnn3ccc(NCc4ccncc4)nc23)c1 [Example 395, [3-(3-Chloro-phenyl)-pyrazolo[1,5-a]pyrimidin-5-yl]-pyridin-4-ylmethyl-amine] showed a pIC50 of over 6.00. In the case of c1cc(CNc2ccn3ncc(-c4ccsc4)c3n2)ccn1 [Example 63, Pyridin-4-ylmethyl-(3-thiophen-3-yl-pyrazolo[1,5-a]pyrimidin-5-yl)-amine], the pIC50 was over 6.00. Cc1ccc(S(=O)(=O)Nc2ccc(Nc3ccn4ncc(-c5ccc(C(=O)NCCN(C)C)cc5)c4n3)cc2)cc1 [Example 320, N-(2-Dimethylamino-ethyl)-4-{5-[4-(toluene-4-sulfonylamino)-phenylamino]-pyrazolo[1,5-a]pyrimidin-3-yl}-benzamide] gave a pIC50 of 5.00 to 6.00. COc1cccc(-c2cnn3ccc(Nc4cc(OC)c(OC)c(OC)c4)nc23)c1 [Example 178, [3-(3-Methoxy-phenyl)-pyrazolo[1,5-a]pyrimidin-5-yl]-(3,4,5-trimethoxy-phenyl)-amine] showed a pIC50 of 5.00 to 6.00. Cc1ccc(Nc2ccn3ncc(-c4cnn(C)c4)c3n2)cc1NS(C)(=O)=O [Example 210, N-{2-Methyl-5-[3-(1-methyl-1H-pyrazol-4-yl)-pyrazolo[1,5-a]pyrimidin-5-ylamino]-phenyl}-methanesulfonamide] gave a pIC50 of over 6.00.
